≈ marks a conversion by molar mass, not a printed value. Calls of active or inactive are those of the source. Unless noted, no cut-off for these calls is given here.
Legend:
Mus musculus [1] = test: Toxicity in mouse assessed as change in body weight at 100 mg/kg, po qd for 5 days followed by 2 days rest and 200 mg/kg, po qd for 5 days; type: organism-based; conditions: in vivo
Mus musculus [2] = test: Toxicity in mouse assessed as change in gross appearance at 100 mg/kg, po qd for 5 days followed by 2 days rest and 200 mg/kg, po qd for 5 days; type: organism-based; conditions: in vivo
Mus musculus [3] = test: Toxicity in mouse assessed as behavioral change at 100 mg/kg, po qd for 5 days followed by 2 days rest and 200 mg/kg, po qd for 5 days; type: organism-based; conditions: in vivo
[4] = test system: Mycobacterium tuberculosis; test: Antimycobacterial activity against Mycobacterium tuberculosis Erdman infected in BALB/c mouse assessed as reduction of bacterial load at 200 mg/kg, po qd for 5 days per week administered 60 days after infection measured after 85 days post infection; type: functional, organism-based; parameters: dose 200 mg/kg
[5] = Chemical stability in simulated gastric fluid assessed as compound remaining after 2 hrs by HPLC analysis; type: physicochemical; conditions: simulated gi fluid
Liver microsomes = test: Metabolic stability in Sprague-Dawley rat microsomes assessed as compound remaining after 15 mins by HPLC analysis; type: ADME, Microsome; conditions: 0.25 h
[6] = test system: Mycobacterium tuberculosis; test: Antimycobacterial activity against Mycobacterium tuberculosis; type: functional
[7] = test system: Mycobacterium tuberculosis; test: Antimycobacterial activity against Mycobacterium tuberculosis H37Rv ATCC 27294 in GAS medium after 1 week by microplate alamar blue assay; type: functional; conditions: H37Rv ATCC 27294, 168 h
Vero = test: Cytotoxicity against african green monkey Vero cells by colorimetric assay; type: cell-based; conditions: Chlorocebus sabaeus
[8] = test system: Mycobacterium tuberculosis; test: Antimycobacterial activity against Mycobacterium tuberculosis H37Rv ATCC 27294 incubated 10 days under anaerobic condition measured after 24 hrs recovery in air by luciferase based low oxygen recovery assay; type: functional
[9] = test system: Mycobacterium tuberculosis; test: Antimycobacterial activity against Mycobacterium tuberculosis Erdman infected in BALB/c mouse assessed as reduction of bacterial load at 10 mg/kg, po qd for 5 days per week administered 60 days after infection measured after 85 days post infection relative to untreated control; type: functional
[10] = test system: Mycobacterium tuberculosis; test: Antimycobacterial activity against Mycobacterium tuberculosis H37Rv ATCC 27294 in GAST medium after 1 week by microplate alamar blue assay; type: functional; conditions: H37Rv ATCC 27294, 168 h
Escherichia coli = test: Antibacterial activity against Escherichia coli SG 458; type: functional, organism-based
Proteus vulgaris = test: Antibacterial activity against Proteus vulgaris OX 19; type: functional, organism-based
[11] = test system: Mycolicibacterium smegmatis; test: Antimycobacterial activity against Mycobacterium smegmatis SG 987; type: functional, organism-based
Mycolicibacterium aurum [12] = test: Antimycobacterial activity against Mycobacterium aurum SB 66; type: functional, organism-based
Mycolicibacterium aurum [13] = test: Antimycobacterial activity against Mycobacterium aurum DSM 43536; type: functional, organism-based
Mycolicibacterium vaccae [14] = test: Antimycobacterial activity against Mycobacterium vaccae 10670; type: functional, organism-based
[15] = test system: Mycolicibacterium fortuitum; test: Antimycobacterial activity against Mycobacterium fortuitum B; type: functional, organism-based
[16] = test system: Sporobolomyces salmonicolor; test: Antimicrobial activity against Sporobolomyces salmonicolor SBUG 549; type: functional, organism-based
Candida albicans = test: Antifungal activity against Candida albicans; type: functional, organism-based
Colletotrichum = test: Antifungal activity against Glomerella; type: functional, organism-based
Mycobacterium avium [17] = test: Antimycobacterial activity against Mycobacterium avium MAC 100; type: functional, organism-based
Mycobacterium avium [18] = test: Antimycobacterial activity against Mycobacterium avium MAC 101; type: functional, organism-based
Mycobacterium avium [19] = test: Antimycobacterial activity against Mycobacterium avium MAC 108; type: functional, organism-based
Mycobacterium avium [20] = test: Antimycobacterial activity against Mycobacterium avium MAC 109; type: functional, organism-based
Mycobacterium avium [21] = test: Antimycobacterial activity against Mycobacterium avium MAC 116; type: functional, organism-based
Mycolicibacterium vaccae [22] = test: Antimycobacterial activity against Mycobacterium vaccae 10670 by agar diffusion assay; type: functional, organism-based
[23] = test system: Mycolicibacterium fortuitum; test: Antimycobacterial activity against Mycobacterium fortuitum B by agar diffusion assay; type: functional, organism-based
[24] = test system: Mycobacterium tuberculosis; test: Antimycobacterial activity against Mycobacterium tuberculosis assessed as growth inhibition at 12.5 ug/mL; type: functional
[25] = test system: Mycolicibacterium smegmatis; test: Antimycobacterial activity against Mycobacterium smegmatis; type: functional
Bacillus subtilis = test: Antibacterial activity against Bacillus subtilis ATCC 6633; type: functional, organism-based
Staphylococcus aureus = test: Antibacterial activity against Staphylococcus aureus SG 511; type: functional, organism-based
Micrococcus luteus = test: Antibacterial activity against Micrococcus luteus ATCC 10240; type: functional, organism-based
[26] = test system: Mycobacterium tuberculosis; test: Antimycobacterial activity against Mycobacterium tuberculosis H37Rv; type: functional
[27] = test system: Mycobacterium tuberculosis; test: Antimycobacterial activity against Mycobacterium tuberculosis Erdman infected in BALB/c mouse assessed as reduction of bacterial load at 50 mg/kg, po qd for 5 days per week administered 60 days after infection measured after 85 days post infection; type: functional, organism-based; parameters: dose 50 mg/kg

SMILES	Activity (Mus musculus [1])	Activity (Mus musculus [2])	Activity (Mus musculus [3])	Activity [4]	Stability [5] [%]	Stability (Liver microsomes) [%]	MIC [7] [µM]	IC50 (Vero) [µM]	MIC [8] [µM]	MIC [10] [µM]	Activity (Escherichia coli)	Activity (Proteus vulgaris)	Activity [11]	Activity (Mycolicibacterium aurum [12])	Activity (Mycolicibacterium aurum [13])	Activity (Mycolicibacterium vaccae [14])	Activity [15]	Activity [16]	Activity (Candida albicans)	Activity (Colletotrichum)	other results
O=C(OCc1ccccc1)[C@@H]1COC(c2ccccc2OCc2ccccc2)=N1	Non-toxic	Non-toxic	Non-toxic	inactive	1.4	8.4	12.6 (≈ 4.88 µg/mL)	> 128	67.3 (≈ 26.1 µg/mL)	–	–	–	–	–	–	–	–	–	–	–	MIC [6]: 7.7 µM (≈ 2.98 µg/mL)
CO[C@H]1/C=C/O[C@@]2(C)Oc3c(C)c(O)c4c(O)c(c(/C=N/N5CCN(C)CC5)c(O)c4c3C2=O)NC(=O)/C(C)=C\C=C\[C@H](C)[C@H](O)[C@@H](C)[C@@H](O)[C@@H](C)[C@H](OC(C)=O)[C@@H]1C [RIFAMPIN]	–	–	–	–	–	–	0.06 (≈ 0.0494 µg/mL)	125	–	0.01 (≈ 0.00823 µg/mL)	–	–	–	–	–	–	–	–	–	–	fold change (FC) [9]: >2
CCCCCCCCCCCCCCCC(=O)N(O)CCCC[C@H](NC(=O)[C@@H]1COC(c2ccccc2O)=N1)C(=O)O[C@@H](C)CC(=O)N[C@H]1CCCCN(O)C1=O [MYCOBACTIN S]	–	–	–	inactive	–	–	–	–	–	–	inactive	inactive	inactive	inactive	inactive	inactive	inactive	inactive	inactive	inactive	Activity (Mycobacterium avium [17]): inactive; Activity (Mycobacterium avium [18]): inactive; Activity (Mycobacterium avium [19]): inactive; Activity (Mycobacterium avium [20]): inactive; Activity (Mycobacterium avium [21]): inactive; Activity (Mycolicibacterium vaccae [22]): Active; Activity [23]: Active; inhibition at 12.5 µg/mL [24]: 99%; MIC [25]: 3.1 µM (≈ 2.49 µg/mL); Activity (Bacillus subtilis): inactive; Activity (Staphylococcus aureus): inactive; Activity (Micrococcus luteus): inactive
CCCCCCCCCCCCCCCC(=O)N(O)CCCC[C@H](NC(=O)[C@@H]1COC(c2ccccc2O)=N1)C(=O)OC[C@H](NC(=O)OC(C)(C)C)C(=O)N[C@H]1CCCCN(O)C1=O	–	–	–	inactive	–	–	–	–	–	–	–	–	–	–	–	–	–	–	–	–	MIC [26]: < 0.2 µM; MIC [25]: 0.2 µM (≈ 0.181 µg/mL)
O=C(OCc1ccccc1)[C@@H]1COC(c2ccccc2)=N1	Non-toxic	Non-toxic	Non-toxic	inactive	0.4	5.7	7.2 (≈ 2.03 µg/mL)	> 128	63 (≈ 17.7 µg/mL)	4.42 (≈ 1.24 µg/mL)	inactive	inactive	inactive	inactive	inactive	inactive	inactive	inactive	inactive	inactive	Activity (Mycobacterium avium [17]): inactive; Activity (Mycobacterium avium [18]): inactive; Activity (Mycobacterium avium [19]): inactive; Activity (Mycobacterium avium [20]): inactive; Activity (Mycobacterium avium [21]): inactive; Activity (Mycolicibacterium vaccae [22]): inactive; Activity [23]: Active; Activity (Bacillus subtilis): inactive; Activity (Staphylococcus aureus): inactive; Activity (Micrococcus luteus): inactive
O=C(OCc1ccccc1)c1coc(-c2ccccc2)n1	Non-toxic	Non-toxic	Non-toxic	inactive	0.5	15	0.47 (≈ 0.131 µg/mL)	121	3.8 (≈ 1.06 µg/mL)	0.49 (≈ 0.137 µg/mL)	inactive	inactive	inactive	inactive	inactive	inactive	inactive	inactive	inactive	inactive	Activity (Mycobacterium avium [17]): inactive; Activity (Mycobacterium avium [18]): inactive; Activity (Mycobacterium avium [19]): inactive; Activity (Mycobacterium avium [20]): inactive; Activity (Mycobacterium avium [21]): inactive; Activity (Mycolicibacterium vaccae [22]): Active; Activity [23]: Active; Activity (Bacillus subtilis): inactive; Activity (Staphylococcus aureus): inactive; Activity (Micrococcus luteus): inactive
O=C(OCc1ccccc1)c1coc(-c2ccc(F)c([N+](=O)[O-])c2)n1	12%	Non-toxic	Non-toxic	inactive	2.1	8.1	1.1 (≈ 0.377 µg/mL)	> 128	31.9 (≈ 10.9 µg/mL)	0.48 (≈ 0.164 µg/mL)	inactive	inactive	inactive	inactive	inactive	inactive	inactive	inactive	inactive	inactive	Activity (Mycobacterium avium [17]): inactive; Activity (Mycobacterium avium [18]): inactive; Activity (Mycobacterium avium [19]): inactive; Activity (Mycobacterium avium [20]): inactive; Activity (Mycobacterium avium [21]): inactive; Activity (Mycolicibacterium vaccae [22]): Active; Activity [23]: Active; Activity [27]: inactive; Activity (Bacillus subtilis): inactive; Activity (Staphylococcus aureus): inactive; Activity (Micrococcus luteus): inactive
